Consider three compounds from patent publication US8158621B2, “Methods of treating or preventing autoimmune diseases with 2,4-pyrimidinediamine compounds” (Rigel Pharmaceuticals, Inc., priority 2002, dated 2012).

pIC50: −log10 of the molar value. Several values for one entry are separate records, joined by “and”; a condition that tells them apart may be missing. Equal values may be shown once. Marks after values point to notes of the source that are not given here.

The format of series [1] is in vivo. The following applies: rat, 32 days.
Series [2] can be described thus: Mouse experimental autoimmune encephalomyelitis (EAE). Type of series: in vivo. The following applies: for mice relapsed: from day of immunization. How it is done: In the SJL murine model of EAE, each mouse is sensitized with PLP/CFA. […] In a treatment protocol, at onset of disease, animals are separated to achieve groups with a similar mean clinical score at onset and administered vehicle or various dose frequencies of test articles via oral gavage. In both protocols, clinical scores are monitored daily, and body weights are measured twice weekly.

A short description of series [3]: Mouse collagen antibody-induced arthritis (CAIA). Type of series: in vivo, Balb/c mice. How it is done:
Arthrogen-CIA® Arthritis-inducing Monoclonal Antibody Cocktail (Chemicon International Inc.) is administered intravenously to Balb/c mice (2mg/mouse) on Day 0. Forty-eight hours later, 100 μl of LPS (25 μg) is injected intraperitoneally. On Day 4, toes may appear swollen. By Day 5, one or two paws (particular the hind legs) begin to appear red and swollen. On Day 6, and thereafter, red and swollen paws will remain for at least 1-2 weeks. During the study, the clinical signs of inflammation are scored to evaluate the intensity of edema in the paws. The severity of arthritis is recorded as the sum score of both hind paws for each animal (possible maximum score of 8). The degree of inflammation with involved paws is evaluated by measurement of diameter of the paws. Body weight changes are monitored.
Animals are treated at the time of induction of arthritis, beginning on Day 0. Test compounds and control compounds are administered once a day (q.d.) or twice a day (b.i.d.), via per os (PO), depending on previously established PK profiles.
At the end of the study (1-2 weeks after induction of arthritis), mice are euthanized and the paws are transected at the distal tibia using a guillotine and weighed. The mean±standard error of the mean (SEM) for each group is determined each day from individual animal clinical scores, and hind paw weights for each experimental group are calculated and recorded at study termination. Histopathological evaluation of paws are obtained.

The nature of series [4]: Non-GLP pilot oral toxicity studies in the mouse. As for the experimental part: Several non-GLP pilot toxicity studies have been conducted in rodents. […] In a 14-day oral toxicity study in the mouse was conducted with doses of 100, 300 and 1000 mg/kg.
Series [5] in a line: Pilot dose finding studies (oral). Type of series: in vivo.
Series [6] is described as follows: 14-day repeat-dose intranasal toxicity study in New Zealand White rabbits. Type of series: in vivo. The following applies: 14-day intranasal. As for the experimental part: A 14-day repeat-dose intranasal toxicity study in New Zealand White rabbits was performed at doses of 1.7, 3.4 or 5.0 mg/kg/day. In life parameters included: clinical observations, body weights, food consumption, ophthalmology, hematology, clinical chemistry, gross necropsy, organ weights, toxicokinetic assessments and histopathology (including the nasal cavity).

Series [7] in a line: Non-clinical safety studies of R921218 (summary). The settings on record: in vivo. The arrangement: species or system rodents and non-rodents. The text has this:
A short discussion of key toxicology studies is provided.

Series [8] relates to bone marrow derived mast cells (BMMC). As to the kind of experiment: BMMC high cell density IgE activation: histamine. It counts as cell-based, mouse. The following applies: High Density; read-out: BMMC anti-IgE histamine. As for the experimental part:
(§1) After sensitizing, cells are counted, pelleted (1000 rpm, 5-10 minutes), and resuspended at 1-3×10^6 cells/ml in MT buffer. Add 100 ul of cell suspension to each well and 100 ul of compound dilutions. The final vehicle concentration is 0.5% DMSO. Incubate at 37° C. (5% CO2) for 1 hour. After 1 hour of compound treatment, stimulate cells with 6× stimulus (60 ng/ml DNP-BSA). Mix wells with the cells and allow plates to incubate at 37° C. (5% CO2) for one hour. After 1 hour incubation, pellet cells (10 minutes, 1000 RPM) and collect 200 ul per well of the supernatant, being careful not to disturb pellet, and transfer to a clean tube or 96-well plate. Place the supernatant plate on ice. During the 4-5 hour step (see next) perform the hexosiminidase assay. Resuspend cell pellet in 240 ul WEI-conditioned media containing 0.5% DMSO and corresponding concentration of compound. Incubate BMMC cells for 4-5 hours at 37° C. (5% CO2). After incubation, pellet cells (1000 RPM, 10 minutes) and collect 225 ul per well and place in −80° C. until ready to perform ELISAS. ELISAS are performed on appropriately diluted samples (determined empirically for each donor cell population so that the sample measurement falls within the standard curve) following the supplier's instructions.

The nature of series [9]: 14-day repeat-dose intranasal toxicity study in Cynomolgus monkeys. The following applies: 14-day intranasal. Type of series: in vivo. How it is done: A 14-day repeat-dose intranasal toxicity study in Cynomolgus monkeys was performed at doses of 2.1, 4.5 or 6.3 mg/kg/day. In life parameters included: clinical observations, body weights, food consumption, ophthalmology, blood pressure, electrocardiography, hematology, clinical chemistry, urinalysis, immunotoxicological assessment, gross necropsy, organ weights, toxicokinetic assessments and histopathology (including the nasal cavity).

Series [10] has as its system basophil cells (human peripheral blood). As to the kind of experiment: Basophil dustmite activation: histamine release assay. It counts as cell-based. The following applies: basophils, dust mite activation. As for the experimental part:
The basophil activation assay was carried out using whole human peripheral blood from donors allergic to dust mites with the majority of the red blood cells removed by dextran sedimentation. Human peripheral blood was mixed 1:1 with 3% dextran T500 and RBCs were allowed to settle for 20-25min. The upper fraction was diluted with 3 volumes of D-PBS and cells were spun down for 10 min at 1500 rpm, RT. Supernatant was aspirated and cells were washed in an equal volume MT-buffer. Finally, cells were resuspended in MT-buffer containing 0.5% DMSO in the original blood volume. 80 uL cells were mixed with 20 uL compound in the presence of 0.5% DMSO, in triplicate, in a V-bottom 96-well tissue culture plate. A dose range of 8 compound concentrations was tested resulting in a 10-point dose response curve including maximum (stimulated) and minimum (unstimulated) response. […] The cells were stimulated for 30 minutes at 37° C., 5% CO2. The plate was spun for 10 min at 1500 rpm at room temperature and 80 uL the supernatant was harvested for histamine content analysis using the histamine ELISA kit supplied by Immunotech. The ELISA was performed according to supplier's instructions.

The subject of series [11] is bone marrow derived mast cells (BMMC). As to the kind of experiment: BMMC high cell density IgE activation: LTC4. It counts as cell-based, mouse. The following applies: High Density; read-out: BMMC anti-IgE LTC4. As for the experimental part:
as §1

Setting [12] is: 100 mg/kg 1x/day starting on day of immunization.
[13] abbreviates: 100 mg/kg 2x/day starting on day of immunization.
[14] abbreviates: 200 mg/kg 2x/day starting on day of onset.

In the case of `Nc1cccc(Nc2ncc(F)c(Nc3cccc(N)c3)n2)c1` [Compound R921302], in series [1], the “tolerability, oral doses of 50, 150 and 300 mg/kg” value was “well tolerated”. In addition, in [2] (setting [12]), the Incidence was 10/10; the Mortality is 0/10; the Onset is given as 12.3 ± 0.7; the “Peak (mean clinical score)” value was 4.3+1.3 and 4.3 ± 1.3. In [2] (setting [13]), the Incidence is given as 10/10; the Mortality is 3/10^a; the Onset is 13.0 ± 1.2^b; the “Peak (mean clinical score)” value was 4.3+1.4 and 4.3 ± 1.4. In addition, the mice relapsed entry in series [2] (100 mg/kg twice daily group) was “None”. Besides, the mice relapsed in [2] (100 mg/kg/day group) is 3/8. In series [2] (setting [14]), the Incidence was 12/12, the “Mean score at treatment” value was found to be 3.4 ± 1.6, the Mortality is recorded as 1/12 and the Peak worked out at 4.3 ± 0.7. The Relapses in [2] (setting [14]) is given as 2/12. Also, the “Group Average Histopathological Score (0-15), average total score ± SD” value in [3] (100 mg/kg, twice daily) is listed as 5.1 ± 1.9. In addition, in [3] (end of study), the “reduction of paw weight compared with vehicle control group” value is listed as 99.9%. The “histopathological evaluation of the resected paws” value in series [3] (mouse, in vivo) was “lesions of lesser severity”. In [4] (14-day oral toxicity study), the “NOAEL (no observed adverse effect level)” value was 100 mg/kg. Besides, the “tolerability, 100 mg/kg q.d. or b.i.d.” value in series [4] (in vivo, po, 100 mg/kg) is recorded as “well tolerated”. Moreover, in [4] (in vivo, po, 300 mg/kg), the “findings at 300 mg/kg” value is “histopathological changes in the vulva” and the “tolerability, 300 mg/kg q.d. or b.i.d.” value is on record as “not tolerated”. Besides, in series [4] (in vivo, po, 1000 mg/kg), the “tolerability, 1000 mg/kg” value is given as “not tolerated” and the “tolerability, oral 1000 mg/kg” value was “tolerated”.
`CNC(=O)COc1cccc(Nc2ncc(F)c(Nc3ccc4c(c3)NCCO4)n2)c1` [Compound R921219] had a doses not tolerated in series [5] (multiple (7-day) doses) not below 200 mg/kg/day. The “NOEL (no observed effect level)” value in [5] (single oral dose) came out at 600 mg/kg.
With `Oc1cccc(Nc2ncc(F)c(Nc3cccc(O)c3)n2)c1` [Compound R921218], the “NOAEL (no observed adverse effect level)” value turned out to be 5.0 mg/kg/day in series [6] and 6.3 mg/kg/day in series [9]. Also, the genetic toxicology testing entry in series [7] is “no evidence for mutagenic or elastogenic potential”. For the same compound, the pIC50 in series [8] was 6.69; in [10], 6.52; in [11] it was 6.12.
